From publication PMC11986975, “A Cdk5 inhibitor restores cognitive function and alleviates type 2 diabetes in mice” (iScience, 2025)

Key:
Cdk1/CylY = test: Specificity kinase assay, Cdk1 with cyclin Y; format: biochemical; details: inhibitor 0-100 nM; read-out: IC50, Cdk1 with activator cyclin Y
Excerpt: To assess the specificity of inhibitors BLINK11 and BLINK15 against CDK5, we investigated their effects on different Cdks, i.e., Cdk1, Cdk2, and Cdk9 that share structural homology with CDK5. […] However, these IC50 values were higher than those observed for CDK5/p35 and CDK5/p25. […] Overall, BLINK11 and BLINK15 can selectively target CDK5 at lower concentrations. […]
IC50 of all the kinases for both BLINK11 and BLINK15 inhibitors.

[1] = MTT cell toxicity assay in N2A cells; format: cell-based; details: mouse, N2A (Neuro2A) cells, all doses (25 to 100 μM)
Experimental: HEK293T, HepG2, and N2A cells were used in the study representing kidney, liver and neuronal cell lines respectively. The cells were cultured in DMEM supplemented with 10% fetal bovine serum and antibiotics at 37°C under 5% CO2. The cells were tested negative for mycoplasma.
To evaluate the compound toxicity for the Cdk5 inhibitors, an MTT assay was performed in HEK293T, HepG2, and N2A cells at varying concentrations. Six hours after cell seeding, the compounds were added in different amounts, and the cells were harvested after 24 h for further analysis. N2A cells were transfected using Lipofectamine-3000 reagent, co-transfecting with plasmids encoding Cdk5/p35 and Cdk5/p25 for 12 h, followed by inhibitor treatment to assess their effects in the cell culture system. The concentrations of each plasmids used was 1 μg, total of 3 μg per well for 6 well plates.

[2] = PAMPA blood-brain barrier permeability assay (brain polar lipid extract); format: in vitro ADME; details: 7 h incubation, 100-500 uM, > 10*10^-6 cm/s = high permeability, read-out: Paap (PAMPA-BBB permeability)
Experimental: PAMPA assay was performed using a PAMPA filter plate (MAIPNTR10) coated with brain polar lipid extract (141101P) to evaluate blood-brain barrier (BBB) permeability of the compounds. The assay was performed with the help of the protocol provided by Merck Millipore on their official website and articles as cited.[62]^,[63] 5% of brain polar solution was used to coat the donor plate (15ul per well) by drying the plate in a fume hood. The acceptor plate was filled with 300ul of buffer (5% DMSO in PBS). The donor plate coated with brain polar solution was placed above the acceptor plate and different concentrations of Cdk5 inhibitor (100-500uM) dissolved in 5% DMSO were added to it (150ul per well). After 7 h of incubation, the absorbance was measured at broad spectrum 250–500 nm. […] For permeability, the Papp of the drugs was calculated.Paap = C ∗ -ln (1-[drugacceptor]/[Drugequilibrium]); C=VD∗VA/(VD + VA) ∗ area ∗ timePaap < 10∗10^−6 cm/s - Low permeability; Paap > 10∗10^−6 cm/s - high permeability

HFD-fed mice [3] = test: Glucose tolerance test (GTT) in HFD mice; format: in vivo; details: i.p., both dosages 20 and 40 mg/kg/day, 20 days
Experimental: (§1) For the glucose tolerance test, 2 g/kg of glucose was utilized, and 0.75U/kg of human insulin was employed The glucose tolerance test (GTT) and insulin tolerance test (ITT) were performed in HFD mice models after 20 weeks of HFD feeding followed by 20 days of drug administration.[48] For GTT the mice were kept in a fasting period for overnight before glucose injections of 2 g/kg intraperitoneally. For ITT the mice were kept in a fasting for 6 h prior to insulin injection of 0.75 U/kg intraperitoneally. A one-touch glucometer was used to assess the blood sugar levels at various intervals (0, 60, and 120 min) following intraperitoneal infusion of both glucose and insulin.[23]^,[49]^,[50]^,[51] After 20 weeks of a HFD and 20 days of drug administration, the tests were carried out.

HFD-fed mice [4] = test: Insulin tolerance test (ITT) in HFD mice; format: in vivo; details: i.p., both dosages 20 and 40 mg/kg/day, 20 days
Experimental: as §1

HFD-fed mice [5] = test: Morris water maze (MWM) in HFD mice; format: in vivo; details: i.p., both doses 20 and 40 mg/kg/day, 20 days
Experimental: The MWM test was conducted to evaluate memory and spatial learning in mice, using visual cues placed on the walls of a water tank. For five consecutive days, the mice were trained in the water maze, with each session involving the release of the mice from various starting points and the task of locating a hidden platform within the maze. Each day, the mice underwent four trials, following the established protocol by Charles V. Vorhees (2006). The time taken (latency) for each mouse to find the platform was measured and recorded throughout the training period.
On the sixth day, a probe test was conducted to assess reference memory. The hidden platform was removed, and the mice’s behavior was observed as they navigated the maze. The time spent in the target quadrant and the time taken to reach the former platform location were recorded. This probing phase aimed to evaluate the mice’s retention of the spatial information and memory acquired during the training sessions. The MWM test evaluated memory and spatial learning in mice using visual cues in a water tank. Over five days, mice were trained to find a platform within the tank, undergoing four trials daily as per Charles V. Vorhees' protocol. On day six, a probing experiment assessed reference memory. […] Time spent and latency to reach the target quadrant were recorded. […]

CDK5 = tested on: T1, CDK5; test: Cdk5 kinase activity of Cdk5 pulled down from hippocampus lysate of treated HFD mice; format: in vivo; details: i.p., 20 days, in the presence of p25
T1 construct: Cdk5 kinase activity using pulled down Cdk5 from the hippocampus lysate of the mouse groups; from tissue; host or cells: hippocampus / brain lysate of male C57BL/6J mice on high-fat diet
Experimental: Cdk5 was immunoprecipitated from N2A cells and brain lysate using a Cdk5 antibody. Kinase assays were performed using a Promega ADP-Glo Kinase Assay kit with Cdk5/p35 and Cdk5/p25 complexes. Histone was used as a substrate to test kinase activity Cdk5 was immunoprecipitated from N2a cells overexpressing Cdk5/p35 and Cdk5/p25, following treatment with BLINK11 and BLINK15 inhibitors at concentrations of 50nM and 100nM, using a Cdk5 antibody. A kinase assay was subsequently conducted as described in Bankston et al.[53] Additionally, Cdk5 was precipitated from mouse brain lysates treated with BLINK11 and BLINK15 inhibitors. The immunoprecipitation was performed with 100 μL of A/G beads, 2 μg of Cdk5 antibody, and 150 μg of cell and brain lysates, with elution carried out using a urea elution buffer. The kinase assay was conducted using the ADP-Glo Kinase Assay Kit (Promega) with immunoprecipitated Cdk5, ATP, and 1–2 μg of histone as the substrate.

Sequence of Cdk1/CylY (P06493 whole entry): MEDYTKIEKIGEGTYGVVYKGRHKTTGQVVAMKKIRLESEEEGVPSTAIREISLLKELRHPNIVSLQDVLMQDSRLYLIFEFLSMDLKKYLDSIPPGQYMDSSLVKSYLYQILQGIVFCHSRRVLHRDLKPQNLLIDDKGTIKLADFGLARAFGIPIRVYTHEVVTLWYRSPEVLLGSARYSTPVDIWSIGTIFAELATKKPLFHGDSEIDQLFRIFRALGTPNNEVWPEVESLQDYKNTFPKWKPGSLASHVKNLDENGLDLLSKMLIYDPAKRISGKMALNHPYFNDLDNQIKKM
Sequence of Cdk1/CylY (Q8ND76 2-341 partner): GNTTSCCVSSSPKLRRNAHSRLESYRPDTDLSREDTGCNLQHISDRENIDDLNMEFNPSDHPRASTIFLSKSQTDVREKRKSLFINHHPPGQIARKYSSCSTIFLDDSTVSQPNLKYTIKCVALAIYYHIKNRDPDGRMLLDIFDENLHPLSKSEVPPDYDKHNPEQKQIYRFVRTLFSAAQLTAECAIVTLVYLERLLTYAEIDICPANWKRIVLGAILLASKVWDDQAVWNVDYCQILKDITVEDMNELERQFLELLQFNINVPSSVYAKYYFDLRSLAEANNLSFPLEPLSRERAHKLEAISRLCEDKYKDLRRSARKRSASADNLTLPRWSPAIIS

| IC50 (Cdk1/CylY) [nM] | Papp at 7 h [2] [×10⁻⁶ cm/s] | Structure (SMILES) | viability at 24 h [1] [%] | Glucose tolerance test (GTT) (HFD-fed mice [3]) | Insulin tolerance test (ITT) (HFD-fed mice [4]) | Water maze time to reach the platform (spatial learning and memory) (HFD-fed mice [5]) | CDK5 activity in hippocampal lysate (CDK5) |
| --- | --- | --- | --- | --- | --- | --- | --- |
| 35.8 | > 10 | COc1ccc(C(=O)C[C@@]2(O)C(=O)N(Cc3ccccc3)c3ccc(Br)cc32)cc1[N+](=O)[O-] [BLINK15] | > 50 | significant rescue | significant rescue | rescue behavior | significant reduction in CDK5 activity |
| 39.3 | > 10 | O=C(COc1ccccc1C(=O)Nc1cccc(Cl)c1Cl)Nc1ccc(N2CCOCC2)c(Cl)c1 [BLINK11, 2-(2-((3-chloro-4-morpholinophenyl)amino)-2-oxoethoxy)-N-(2,3-dichlorophenyl)benzamide] | > 50 | significant rescue | significant rescue | rescue behavior | significant reduction in CDK5 activity |
